Measured values taken from patent US20120220581A1, “IMIDAZO[1,2-b]PYRIDAZINE DERIVATIVES AND THEIR USE AS PDE10 INHIBITORS” (Janssen-Cilag, S.A., priority 2009, published 2012).

Legend:
[1] = tested on: female hooded-Lister rats; experiment: Object recognition test (NOR) after sub-chronic PCP; type: in vivo, rat; details: PCP + 1 mg/kg p.o., Day 1, 3 min retention trial, mean
[2] = tested on: female hooded-Lister rats; experiment: as above; type: in vivo, rat
Protocol: 60 female hooded-Lister rats (Charles River, UK) were used as subjects for these studies and weighed 248 g±20 g. Rats were allowed at least a 7-day acclimatization period to the animal unit prior to commencement of experimentation. Rats were housed in groups of 5 under standard laboratory conditions under a 12 h light:dark cycle, lights on at 0700 h. All testing was carried out in the light phase. Food and water were freely provided. All experiments were conducted in accordance with the Animals Scientific Procedures Act, U.K. 1986 and were approved by the University of Bradford ethical review panel.
40 mg of test compound was dissolved in 5 ml of 40% hydroxypropyl β-cyclodextrin (HPBC) solution. The solution was sonicated until completely dissolved. 2 ml of sterile water was added and the pH measured and adjusted with NaOH solution (0.1N) to obtain pH ˜4. Finally, sterile water was added to a final volume of 10 ml. This stock solution was then diluted in 20% HPBC to obtain the final concentrations. 100 mg of PQ10 was dissolved in a 40% HPBC solution and 8 mg of tartaric acid. The solution was sonicated until completely dissolved. 5 ml of sterile water was added and the pH measured and adjusted with NaOH solution (0.1N) to obtain pH ˜4. Finally sterile water was added to a final volume of 10 ml.
Test compound was administered at doses of 0.3 and 1.0 mg/kg via the oral route 30 min prior to testing.
PQ10 was administered at a dose of 1.0 mg/kg via the oral route 30 min prior to testing.
Certain pre-clinical tests allow the observation of relatively subtle cognitive deficits in the rat that resemble cognitive symptoms in subjects with schizophrenia. The cognitive deficits observed are seen in behaviours such as episodic memory, which can be measured by recognition tasks such as the novel object recognition (NOR) paradigm. A recognition memory task allows the comparison between presented stimuli and previously stored information. Ennaceur, A Delacour, J (1988) A new one-trial test for neurobiological studies of memory in rats Behav Brain Res 31: 47-59 described the NOR test in rats which was based on the differential exploration of familiar and new objects. The NOR test is a non-rewarded, ethologically relevant paradigm based on the spontaneous exploratory behaviour of rats that measures episodic memory. Each session consists of two trials. In the first trial, the rats are exposed to two identical objects in an open field. During the second trial, rats are exposed to two dissimilar objects, one familiar object from the first trial and one new object. Object recognition in rats can be measured as the difference in time spent exploring the familiar and the new object. […] The duration of each trial is also important as a preference for the novel object only lasts during the first 1 or 2 minutes, after which time preference diminishes as both objects become familiar and are explored equally.
Rats were randomly assigned to the 8 treatment groups
Rats were allowed to habituate to the empty test box and the behavioural test room environment for 1 h on day 1. Prior to behavioural testing on day 2 rats were given a further 3 min habituation.
Following the 3 min habituation period, the rats were given two 3 min trials (T1 and T2) which were separated by a 1 min inter-trial interval in the home cage during which the objects were changed.
In this trial, the animals were allowed to explore two identical objects (A1 and A2) for 3 min.
In this trial, the animals explored a familiar object (A) from T1 and a novel object (B) for 3 min. The familiar object presented during T2 was a duplicate of the object presented in T1 in order to avoid any olfactory trails.
The object exploration was defined by animals licking, sniffing or touching the object with the forepaws whilst sniffing, but not leaning against, turning around, standing or sitting on the object. […]

SMILES: COc1cc2ncnc(N3CC[C@@H](Oc4cnc5ccccc5n4)C3)c2cc1OC [PQ10, reference compound]
- T2(A) exploration time of familiar object, retention trial [1]: 7.9 s
- T2(B) exploration time of novel object, retention trial [1]: 19.9 s
- DI (discrimination index) ([2]; PCP + 1 mg/kg p.o., mean): 0.4193
- LMA (no. of lines crossed) ([2]; PCP + 1 mg/kg p.o., mean): 65.5 no. of lines crossed
- effects of acute treatment in the NOR task ([2]; acute treatment, oral route 30 min prior to testing, compound 1 0.3-1.0 mg/kg, PQ10 1.0 mg/kg, sub-chronic PCP female rats): selective for the retention phase
